Measurements from patent publication US7795305B2, “CDDO-compounds and combination therapies thereof” (Board of Regents, The University of Texas System, priority 2000, dated 2010).

Key:
U937 cells [1] = assay: cells; type: cell-based, human
Protocol: Suspension culture of leukemic cells.
(§1) CDDO. The effect of CDDO on the survival of HL-60 and U937 leukemia cell lines is depicted in FIG. 1. A time- and dose-dependent decrease of HL-60 cells: at 48 hours, 10^−8 M, at 72 and 96 hours, 10^−9 M of CDDO reduced cell numbers by 50%. Viability of U937 cells was inhibited at 107 to 1018 at 48 hours. DNA fragmentation was measured to confirm that the cell death induced by CDDO was due to apoptosis on a sub G1 cell population by DNA/RNA flow cytometry (FIG. 2). The percentage of proliferating cells were analyzed by FCM.

U937 cells [2] = assay: Cell cycle kinetics, proliferating (S+G2M) fraction by flow cytometry; type: cell-based, human
Protocol: Cell kinetic and DNA fragmentation studies. The cell cycle kinetics was determined by staining cells with acridine orange for cellular DNA and RNA content followed by flow cytometeric analysis as described. Samples were measured in a FACScan flow cytometer (Becton Dickinson, San Jose, Calif.) using the 488-nm line of a […] argon laser and filter settings for green (530 nm) (DNA) and red (585 nm) (RNA) fluorescence. Ten thousand events were stored in list mode for analysis. The percentage of cells in the “sub G1 peak” defined the proportion of apoptotic cells in the tested populations. […] Cell-cycle kinetics was analyzed using ModFit software (Verity Software House, Inc., Topsham, Me.).
as §1

[3] = test system: Bcl-2 protein in U937 cells; assay: Bcl-2 protein by quantitative flow cytometry; type: cell-based, human; conditions: 1 μM, 72 hrs
Protocol: The involvement of the mitochondrial apoptotic pathway in CDDO mediated apoptosis was analyzed in U937 cells.

PPARα receptor = PPARα receptor (Homo sapiens, UniProt Q07869); assay: Transactivation of PPARα; type: cell-based
PPARα receptor, sequence (Q07869 whole entry): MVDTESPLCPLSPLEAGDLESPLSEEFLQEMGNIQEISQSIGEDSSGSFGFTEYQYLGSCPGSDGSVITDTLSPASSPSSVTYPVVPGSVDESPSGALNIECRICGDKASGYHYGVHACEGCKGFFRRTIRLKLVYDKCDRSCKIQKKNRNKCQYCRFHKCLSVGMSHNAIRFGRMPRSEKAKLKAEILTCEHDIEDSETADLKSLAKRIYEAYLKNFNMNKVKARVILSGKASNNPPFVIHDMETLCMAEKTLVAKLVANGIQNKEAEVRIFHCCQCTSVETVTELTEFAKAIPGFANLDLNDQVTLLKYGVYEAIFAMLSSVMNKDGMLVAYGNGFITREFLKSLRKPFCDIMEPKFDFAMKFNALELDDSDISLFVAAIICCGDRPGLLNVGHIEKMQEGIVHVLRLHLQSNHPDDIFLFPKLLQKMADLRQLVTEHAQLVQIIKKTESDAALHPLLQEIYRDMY

U937 cells [4] = assay: Mitochondrial membrane potential; type: cell-based, human
Protocol: Cytofluorometric analysis of the Δψm. To evaluate the Δψm, cells were incubated with the cationic lipophilic dye […] (CMXRos; 150 nM; Molecular Probes, Inc., Eugene, Oreg.). CMXRos is incorporated into mitochondria driven by the […] and reacts with thiol residues to form covalent thiol ester bonds. CMXRos fluorescence was recorded by flow cytometry in the FL3 channel. Background values of the apoptosis of control cells cultured without the CDDO-Me or in DMSO-solvent control (<10% CMXRos-low) were subtracted from the values obtained under the experimental conditions.
An early mitochondrial disruption has been observed in a number of different models of apoptosis. Changes in the cellular content of the cationic lipophilic fluorochrome CMXRos were determined by FACS analysis to measure loss of the mitochondrial membrane potential (Δψ) (Macho et al., 1996). […] Similarly, exposure of HL-60 to CDDO-Me (1 μM) for 2 and 4 hrs increased the number of cells with low JC-1 (57 and 60%) or CMXRos staining (46 and 57%), both assays measuring the decrease in Δψ. CDDO-Me-induced changes in the mitochondrial membrane potential of the cells preceded caspase activation and changes in the composition of the plasma membrane. […]

U937/wt = assay: Viability of Bcl-2 transfectants; type: cell-based, human; conditions: 0.1 μM
Text: Cell lines. HL-60, KG-1, U937, and Jurkat cell lines were obtained from the American Type Culture Collection (Rockville, Md.). NB4 cells were kindly provided by Dr. M. Lanotte. HL-60-doxorubicin-resistant cells (HL-60-DOX) were also used. U937/Bcl-2 and its appropriate vector controls (U937/pCEP) were provided by Dr. S. Grant. U937 cells were transfected with WT, S70A, or S70E cDNA containing cytomegalovirus plasmids by electroporation (200 V, 975 μF capacitance) and selected and maintained in the medium plus 500 μg/mL G418 (Gibco BRL, Gaithersburg, Md.)
(§2) The effect of CDDO-Me on Bcl-2 phosphorylation was further investigated by performing metabolic labeling studies with ^32P-orthophosphoric acid. […] To further investigate mechanisms of inhibition of Bcl-2 phosphorylation that could may a role in CDDO-Me-induced cell death, the inventors selected U937 cells that were stably transfected with a serine 70→alanine, Bcl-2 mutant (S70A).

[5] = test system: ERK immunoprecipitated from K562 cells; assay: In vitro ERK (MAPK kinase) assay, MBP phosphorylation; type: biochemical; conditions: 0.1, 1, and 10 μM
Protocol: In vitro ERK assay. The effect of CDDO or CDDO-Me was determined using an in vitro MAPK kinase assay kit from Upstate Biotechnology (Lake Placid, N.Y.) and ERK1/2 antibody from Santa Cruz Biotechnology (Santa Cruz, Calif.). For each sample, ERK 1/2 was immunoprecipitated from 2×10^7 K562 or 1×10^7 HL60 cells using a specific anti-ERK 1/2 antibody and Protein A agarose (Life Technologies, Rockville, Md.). The ERK-containing agarose pellet was resuspended in Assay Buffer containing an inhibitor cocktail (PKC inhibitor peptide, PKA inhibitor peptide, and Compound R24571) to block possible contaminating non-ERK kinases. Where appropriate, varying concentrations (0.1, 1, and 10 μM) of CDDO or CDDO-Me was added. Dephosphorylated myelin basic protein (MBP; 25 μg) was used as substrate. Phosphorylation of MBP was observed by using an anti-phospho-MBP antibody. […] The amount of ERK2 immunoprecipitated from each sample was determined by using anti-ERK2 antibody.
To determine specific effects of CDDO-Me on ERK activity the inventors used an in vitro MAPK kinase assay kit. ERK was immunoprecipitated from K562 cells since these cells contain the Bcr-Abl kinase and activated ERK present in these cells under basal conditions.

Bcl-2 phosphorylation = assay: Bcl-2 phosphorylation, 32P metabolic labeling; type: cell-based; conditions: 0.1 μM
Protocol: Metabolic labeling, immunoprecipitation, and immunoblot analysis. Cells were labeled with [^32P]orthophosphoric acid and then treated with 0.1 μM CDDO-Me or CDDO, after which Bcl-2 was analyzed by immunoprecipitation, as previously described Samples were electrophoresed in a 12% acrylamide/0.1% SDS gel, transferred to nitrocellulose, and exposed to Hyperfilm (Amersham Pharmacia Biotech, UK) at −80° C. The same blot was used for western blot analysis with anti-Bcl-2 antisera.
as §2

Structure (SMILES)	concentration at which viability of U937 cells was inhibited (U937 cells [1]; 48 hours)	viability at 1 µM (U937 cells [1]; Homo sapiens, U-937, 48 h, read-out: cells remaining viable) [%]	viability at 2 µM (U937 cells [1]; Homo sapiens, U-937, read-out: viable cells) [%]	proliferating (S+G2M) fraction (U937 cells [2]; 10^−6 M) [%]	proliferating (S+G2M) fraction (U937 cells [2]; 10^−7 M (DMSO-controls 23.3%)) [%]	decrease in Bcl-2 protein [3] [%]	transactivation of PPARα receptor (PPARα receptor)	cells with decreased Δψ (U937 cells [4]; CDDO-Me alone) [%]	cells with decreased Δψ (U937 cells [4]; after DEVD pretreatment) [%]	viable cells (U937/wt) [%]	MBP phosphorylation by ERK [5]	Bcl-2 phosphorylation (Bcl-2 phosphorylation)
CC1(C)CCC2(C(=O)O)CCC3(C)C(C(=O)C=C4C5(C)C=C(C#N)C(=O)C(C)(C)C5CCC43C)C2C1 (stereo not drawn) [CDDO, 2-cyano-3,12-dioxoolen-1,9-dien-28-oic acid]	107 to 1018	44.7	30.2	5.6	14.9	> 40	did not transactivate	–	–	–	–	–
COC(=O)[C@]12CCC(C)(C)C[C@H]1[C@H]1C(=O)C=C3[C@@]4(C)C=C(C#N)C(=O)C(C)(C)[C@@H]4CC[C@@]3(C)[C@]1(C)CC2 [CDDO-Me]	–	–	–	–	–	–	–	40	4	30	inhibited MBP phosphorylation in a dose-dependent manner	virtually abrogated
